Where two headings read alike, the source gives them in different places.
How the values were obtained:
SH-SY5Y cells [1] = assay: SH-SY5Y cell survival, MTS reduction assay; type: cell-based, human
Description: (§1) SH-SY5Y, IMR-5 and IMR-32 human neuroblastoma cell lines were grown in DMEM medium from (Biowhittaker) plus 2 mM L-glutamine from Eurobio (Courtaboeuf, France) or DMEM already supplemented with 2 mM L-glutamine (Invitrogen, Barcelona, Spain), plus antibiotics and a 10% volume of FCS (Invitrogen, Cergy Pontoise, France or Barcelona, Spain). SH-SY5Y cell lines permanently transfected with pcDNA3/Bcl-2, pcDNA3/Bcl-XL and empty pcDNA3 vectors were grown like their untransfected counterparts. However, Geneticin (G-418) selection was maintained in the growing cultures before the terminal experiments (Ribas and Boix, 2004). In order to induce differentiation, SH-SY5Y cells were cultured on collagen coated plates and treated with 10 μM RA for five days.
(§2) Cell death characterization based on nuclear morphology was assessed by double staining with 0.05 μg/ml bisBenzimide and 25 μg/ml propidium iodide. Cell viability was determined by means of the MTS method. Both procedures have been previously described in detail (Ribas and Boix, 2004). For evaluation of DNA laddering, cell DNA was extracted and electrophoresed in 1.5% agarose gels to evidence the internucleosomal fragmentation typical of apoptosis.
The effects of each indirubin was tested, at a 25 μM final concentration, on the survival of the neuroblastoma SH-SY5Y cell line after 24 h or 48 h exposure.

[2] = system: AhR-dependent expression of p27^Kip1; assay: p27Kip1 expression in 5 L and BP8 hepatoma cells (Western blotting); type: cell-based, mouse; details: 10 μM, 24 h
Description: Actin Western blotting was used as a loading control. […] Average±s.e. of three determinations. […] Karlsruhe, Institute of Genetics, 76021 Karlsruhe, Germany). […] 6.8, 1 mM EDTA, 2% SDS.

p53 = p53 expression, Western blotting; details: SH-SY5Y cells, 12.5 μM
[3] = system: wild-type HCT-116 and HCT-116 sub-clones deprived of p53; assay: Survival of wild-type and p53-deprived HCT-116 cells, MTS; type: cell-based, human; details: 24 h
Description: Average±s.e. of three determinations. HCT116 human adenocarcinoma cell line were obtained from Dr. Vogelstein (The Howard Hughes Medical Institute, Sidney Kimmel Comprehensive Cancer Center, The Johns Hopkins School of Medicine, Baltimore, Md. 21231, USA). HCT116 cells were cultured in McCoy's 5A (Biowhittaker) supplemented with antibiotics and 10% FCS. General culture conditions were an atmosphere of 5% CO2 and a temperature of 37° C. Culture dishes and other plastic disposable tools were supplied by Corning (Corning, N.Y., USA). Indirubin treatments were performed on exponentially growing cultures at the indicated time and concentrations. Control experiments were carried also using appropriate dilutions of DMSO.

[4] = system: effector caspases (DEVDase activity); assay: Effector caspase activation in IMR-5, IMR-32, HL-60 and Jurkat cells; type: cell-based, human; details: 25 μM, 24 h
Description: FIG. 15. […] Every point is the mean±s.e. of three independent experiments with six independent measurements per experiment. […] Bar value is the mean±s.e. of 6 independent determinations.
(§3) The measurement of caspase activity is based on determining the fluorescence released from the AcDEVDafc synthetic substrate after its direct addition to the culture medium, detergent lysis, and incubation at 37°. This method is devised to be applied to 96 multiwell plates. It allows kinetic determinations of caspase activation and the characterization of multiple drugs simultaneously. (Ribas et al., 2005).

SH-SY5Y cells [5] = assay: Nuclear morphology, bisBenzimide and propidium iodide staining; type: cell-based, human; details: 24 h; 10 or 25 μM
Description: Following double staining of DNA with BisBenzimide and propidium iodide, cells were examined by fluorescence microscopy. Thick arrows: apoptosis (nuclear fragmentation); thin arrows: secondary necrosis; arrow heads: pycnotic nuclei. Scale bar: 20 μm. Cell death characterization based on nuclear morphology was assessed by double staining with 0.05 μg/ml bisBenzimide and 25 μg/ml propidium iodide. Cell viability was determined by means of the MTS method. Both procedures have been previously described in detail (Ribas and Boix, 2004).

p21^Cip1 = assay: p21Cip1 expression, Western blotting; details: SH-SY5Y cells, 12.5 μM, 12 h
[6] = system: effector caspase activity (DEVDase); assay: Caspase (DEVDase) assay in SH-SY5Y cells; type: cell-based, human; details: 24 h dose-response; time course at 25 μM
Description: The value of control untreated cells is placed at time 0. DEVDase activity was measured as arbitrary fluorescence units. Every point is the mean±s.e. of at least three independent determinations. (B). […] Every point is the mean±s.e. of at least three independent determinations.
as §3

MDA-MB-231 cells = assay: MDA-MB-231 cell proliferation and cell cycle distribution; type: cell-based, human
Description: MDA-MB-231 cells (derived from hormone-independent breast cancer) were cultured in DMEM supplemented with 10% FCS. For experiments, these cells were seeded in 24-well boxes or in 35 mm Petri dishes at appropriate densities (4.10^4 cells per well for cell growth experiments; 10^5 cells per dish for cell cycle analysis) and exposed to indirubins as indicated.

[7] = system: 5 L (AhR+/+) and BP8 (AhR−/−) cells; assay: Cell cycle distribution of 5 L and BP8 cells (FACS); type: cell-based, mouse; details: 10 μM, 24 h
CDK5/p25 = CDK5/p25 (Homo sapiens, UniProt Q00535); assay: CDK5/p25 kinase assay; type: biochemical, mammalian
Sequence of CDK5/p25 (Q00535 whole entry, species assumed): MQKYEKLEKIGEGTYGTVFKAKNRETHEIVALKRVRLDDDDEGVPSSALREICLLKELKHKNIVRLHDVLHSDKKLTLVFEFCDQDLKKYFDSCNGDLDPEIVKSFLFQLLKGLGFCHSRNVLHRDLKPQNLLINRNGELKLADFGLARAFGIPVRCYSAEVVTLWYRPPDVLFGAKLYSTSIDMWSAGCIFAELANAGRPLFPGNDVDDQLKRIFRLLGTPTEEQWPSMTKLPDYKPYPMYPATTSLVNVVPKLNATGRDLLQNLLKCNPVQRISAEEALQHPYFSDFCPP
Sequence of CDK5/p25 (Q15078 99-307 partner limits assumed, species assumed): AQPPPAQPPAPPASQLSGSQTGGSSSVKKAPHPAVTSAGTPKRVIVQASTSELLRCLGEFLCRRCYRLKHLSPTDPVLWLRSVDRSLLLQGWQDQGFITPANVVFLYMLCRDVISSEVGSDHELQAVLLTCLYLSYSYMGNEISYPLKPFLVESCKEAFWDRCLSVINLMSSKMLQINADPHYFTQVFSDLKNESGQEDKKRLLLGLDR

SH-SY5Y cells [8] = assay: SH-SY5Y cell death, LDH release assay; type: cell-based, human; details: IO, 5BIO, 6BIO, 7BIO compared (FIG. 3B)
Description: In addition, cell death was estimated 48 h after the addition of each indirubin (25 μM) using the LDH release assay. As MTS reduction is occasionally observed under conditions different from cell death, an independent cell death evaluation procedure was used, the lactate dehydrogenase (LDH) release assay. This assay confirmed the induction of cell death by the indirubins of the invention, despite their overall lack of effects on CDKs and GSK-3.

[9] = system: SH-SY5Y cells differentiated by retinoic acid; assay: Viability of RA-differentiated versus proliferating SH-SY5Y cells, MTS; type: cell-based, human; details: 24 h; 7BIO 25 μM, STS 1 μM
[10] = system: IMR-5, IMR-32, HL-60 and Jurkat cells; assay: Viability of IMR-5, IMR-32, HL-60 and Jurkat cells, MTS; type: cell-based, human; details: 24 h
Description: as §1, with “FIG. 15. […] Every point is the mean±s.e. of three independent experiments with six independent measurements per experiment. […] SH-SY5Y,” for “SH-SY5Y,”, “[…] HL-60 and Jurkat” for “In order to induce differentiation, SH-SY5Y”, “grown in RPMI 1640 medium with 10% FCS” for “cultured on collagen coated plates”, “antibiotics from Invitrogen (Barcelona, Spain).” for “treated with 10 μM RA for five days.”

[11] = system: 5 L (AhR+/+) and BP8 (AhR−/−) cells; details: 24 h
SH-SY5Y cells [12] = assay: DNA laddering (internucleosomal fragmentation); type: cell-based, human; details: 25 μM, 24 h
Description: as §2

cytochome C release = assay: Cytochrome C release from mitochondria; details: 12.5 μM, 10 h
[13] = system: SH-SY5Y cells transfected with pcDNA3/Bcl-2 or pcDNA3/Bcl-XL; assay: Viability of Bcl-2 / Bcl-XL overexpressing SH-SY5Y cells, MTS; type: cell-based, human; details: 7BIO 25 μM, STS 2 μM; 9 and 24 h
SH-SY5Y cells [14] = assay: SH-SY5Y cell survival, MTS reduction assay; type: cell-based, human; remark: listed apart in the source

(2′Z,3′E)-7-bromoindirubin-3′-oxime [7BIO]
time required to induce 70% cell death (SH-SY5Y cells [1]; 25 μM (FIG. 7)): ≤ 12 h
time to almost complete cell death (SH-SY5Y cells [1]; 25 μM (FIG. 7)): ≤ 24 h
effect of Q-VD-Oph on induced cell death (SH-SY5Y cells [1]; 25 μM indirubin, 48 h, 10 μM Q-VD-OPh (FIG. 10)): no effect
cell death inducing activity, position 7 halogen / N1-methyl series (MTS) (SH-SY5Y cells [1]; 48 h (FIG. 4)): equipotent
AhR-dependent expression of p27^Kip1 [2]: potently enhance
induction of p53 (p53): insignificant
dose-response curves, wild-type versus p53-deprived HCT-116 [3]: essentially the same
effector caspase activation (DEVDase activity) [4]: fell consistently below the background
nuclear morphology / PI staining (SH-SY5Y cells [5]): numerous large, unfragmented pycnotic nuclei
induction of p21^Cip1 overexpression (p21^Cip1): negligible effects
activation of caspase activity [6]: remained at the level of control
cell cycle distribution (MDA-MB-231 cells; 24 h, FACS): accumulation in G2/M and reduction of G0/G1
cell proliferation by direct counting (MDA-MB-231 cells; 48 h exposure): dose-dependent inhibition of cell proliferation
reversibility of the effect by removal of compound (MDA-MB-231 cells; medium replaced at 48 h): poorly if at all reversible
cell cycle distribution of AhR−/− and AhR+/+ cells [7]: striking AhR-dependent accumulation in G0/G1
inhibitory activity on CDK5/p25 (in words) (CDK5/p25): marginal inhibitory activity
inhibitory activity on CDK5/p25 (in words) (CDK5/p25; listed as 24): weak and gradually decreasing inhibitory activity
cell death (LDH release) (SH-SY5Y cells [8]): most potent compound
effect of cell differentiation on induced cell death [9]: negligible effect
induction of cell death [10]: induced cell death in the same range of concentrations
dose-response curves of cell death in 5 L versus BP8 [11]: essentially the same
DNA laddering (SH-SY5Y cells [12]): no ladder was observed
release of cytochome C from mitochondria (cytochome C release): negligible release
protection by Bcl-2 / Bcl-XL overexpression [13]: neither Bcl-XL nor Bcl-2 overexpression provided any significant protection
sensitivity of cell death to the presence of the caspase inhibitor Q-VD-OPh (SH-SY5Y cells [14]; 20 μM Q-VD-OPh, MTS 43 h after addition (Table 5)): completely insensitive
concentration required to reduce cell survival (MTS reduction) (SH-SY5Y cells [14]; 48 h, IO, 5BIO, 6BIO, 7BIO compared (FIG. 3A)): most potent compound
